# Read-outs that look alike come from different tables or passages of the source.
# Key:
# [1] = target: T1, hERG (Homo sapiens, UniProt Q12809); experiment: hERG automated patch clamp assay in hERG-CHO cells; type: cell-based
# T1 construct: expressed in transfected cells; host or cells: CHO
# Excerpt: The potential cardiotoxicity of LPT99 was investigated in an assay using the hERG-CHO cells transfected with the automated patch clamp assay.
# [2] = system: Sprague-Dawley rats; experiment: functional observation battery, IP injection; type: in vivo; conditions: rat
# Experimental: (§1) A functional observation battery was conducted with LPT99 administered via IP (intraperitoneal) injection in Sprague-Dawley rats. The study was preceded by a non-GLP maximum tolerated dose (MTD) toxicity study, via the same administration and test system, which determined the MTD of LTP99 to be 1000 mg/kg. LPT99 was suspended in vehicle [0.5% w/v methylcellulose and 0.1% v/v TWEEN®80 in Milli-Q water] and administered intraperitoneally to Sprague-Dawley rats as a single dose at the doses of 100 (low—G2/G2TK), 300 (mid—G3/G3TK), and 750 (high—G4/G4TK) mg/kg body weight. The rats in vehicle control groups (G1/G1TK) received the vehicle alone. The dose volume administered was at an equivolume of 10 mL/kg body weight for all groups.
# (§2) LPT99 was suspended in vehicle [0.5% w/v methylcellulose and 0.1% v/v TWEEN® 80 in Milli-Q water] and administered intraperitoneally to Sprague-Dawley rats as a single dose at the doses of 100 (low—G2/G2TK), 300 (mid—G3/G3TK), and 750 (high—G4/G4TK) mg/kg body weight. The rats in vehicle control groups (G1/G1TK) received the vehicle alone. The dose volume administered was at an equivolume of 10 mL/kg body weight for all groups.
# [3] = metabolic profile in hepatic fractions; type: in vitro ADME, human, dog, rabbit, rat, and mouse; conditions: phase I biotransformation pathways
# Experimental: The metabolic profile and stability of LPT99 was characterized in human, dog, rabbit, rat, and mouse microsomal and S9 fractions, and in human cytosolic fractions. LPT99 was extensively metabolized (>90% metabolized after 1 hour) in microsomal and S9 hepatic fractions in all tested species. Up to nine (9) metabolites were formed through phase I biotransformation pathways. The most abundant metabolites were identified as single hydroxylation, double hydroxylation, and demethylation plus double hydroxylation. […] In the rabbit S9 fraction, the quantity of detected metabolites was less than in the human S9 fraction.
# [4] = system: A549 cells; experiment: proliferation of non-apoptotic A549 cells; type: cell-based; conditions: A549 cells cultured with LPT99 up to 6 days; reversible on removal
# Experimental: The effect of LPT99 on proliferation of non-apoptotic cells was studied. A549 cells were cultured in the presence of LPT99 for up to 6 days; the cell number was monitored by flow cytometry, and doubling time was calculated.
# [5] = system: bacterial reverse mutation; experiment: GLP in vitro bacterial reverse mutation assay (Ames test); type: cell-based
# [6] = worst-case human plasma concentration estimate; conditions: assumed maximum clinical dose 200 μg, human plasma volume 2400 mL
# Experimental: These bioavailability values are similar to those described for other drugs formulated in POLOXAMER® gels and administered IT (Honeder, et al., Audiol. Neurootol. 2014, 19(3), 193-202; Wang, et al., Audiol. Neurootol. 2011, 16(4), 233-41; Yang, et al., Sci. Transl. Med. 2016, 8(356), 356ra120). Assuming a maximum clinical dose of 200 μg LPT99 and an average human plasma volume of 2400 mL (for an average 60-kg individual [typical blood plasma volume in males is ˜39 mL/kg of body weight, and in females ˜40 mL/kg]).
# [7] = system: noise-induced ABR threshold shift; experiment: noise trauma ABR threshold study (FIG. 6); type: in vivo; conditions: TRAUMA+LPT99 group, 10 and 21 days
# [8] = system: guinea pigs; experiment: dermal sensitization range-finding pilot sub-study; type: in vivo, guinea pig; conditions: topical 50 μl, 200, 400, or 797 μM
# Experimental: A GLP-compliant dermal sensitization study was conducted with LPT99 in guinea pigs. The objective was to assess potential dermal sensitization of LPT99 using the Buehler test (Buehler, Arch Dermatol. 1965, 91, 171-7).
# The test article, LPT99, was in a neutral-pH, buffered, isotonic solution containing a thermoreversible compound. The vehicle control was buffered at neutral pH and formulated as for the test article; it contained POLOXAMER® 407, disodium phosphate dodecahydrate hydrogen, sodium dihydrogen phosphate dihydrate, sodium chloride, and water for injection.
# In the range-finding pilot substudy, 4 guinea pigs (2 males and 2 females; Charles River, Stone Ridge, N.Y.) were dosed.
# [9] = GLP acute systemic toxicity study with toxicokinetics, single IP dose; type: in vivo; conditions: Sprague-Dawley, plasma, rat
# Experimental: (§3) A GLP acute systemic toxicity study was conducted with LPT99 administered via IP injection in Sprague-Dawley rats. The acute systemic toxicity study was preceded by a non-GLP maximum tolerated dose (MTD) toxicity study, via the same administration and test system, which determined the MTD of LTP99 to be 1000 mg/kg.
# as §2
# (§4) The main toxicity groups consist of 15 rats/sex/group in G1 and G4 groups and 10 rats/sex/group in G2 and G3 groups. The toxicokinetic groups consisted of 6 males and 6 female rats each for the prevention groups, whereas the vehicle control group had 3 male and 3 female rats.
# [10] = system: Sprague-Dawley rats; experiment: as above; type: in vivo; conditions: rat; for dose proportionality of Cmax and AUClast: IP 100 to 750 mg/kg/day
# Experimental: as §3, §2, §4
# [11] = non-GLP maximum tolerated dose (MTD) toxicity study, IP; conditions: rat, in vivo, Sprague-Dawley rats
# Experimental: as §1, §3
# [12] = distribution in cochlea and plasma after a single IT administration; type: in vivo; conditions: rat
# Experimental: Distribution of LPT99 was investigated in cochlea and plasma after a single IT administration in rats. The inhibitor was administered at 50, 100, or 200 μM (dissolved in 5% hydroxypropyl cyclodextrin in physiological serum).
# T1 sequence (Q12809 whole entry): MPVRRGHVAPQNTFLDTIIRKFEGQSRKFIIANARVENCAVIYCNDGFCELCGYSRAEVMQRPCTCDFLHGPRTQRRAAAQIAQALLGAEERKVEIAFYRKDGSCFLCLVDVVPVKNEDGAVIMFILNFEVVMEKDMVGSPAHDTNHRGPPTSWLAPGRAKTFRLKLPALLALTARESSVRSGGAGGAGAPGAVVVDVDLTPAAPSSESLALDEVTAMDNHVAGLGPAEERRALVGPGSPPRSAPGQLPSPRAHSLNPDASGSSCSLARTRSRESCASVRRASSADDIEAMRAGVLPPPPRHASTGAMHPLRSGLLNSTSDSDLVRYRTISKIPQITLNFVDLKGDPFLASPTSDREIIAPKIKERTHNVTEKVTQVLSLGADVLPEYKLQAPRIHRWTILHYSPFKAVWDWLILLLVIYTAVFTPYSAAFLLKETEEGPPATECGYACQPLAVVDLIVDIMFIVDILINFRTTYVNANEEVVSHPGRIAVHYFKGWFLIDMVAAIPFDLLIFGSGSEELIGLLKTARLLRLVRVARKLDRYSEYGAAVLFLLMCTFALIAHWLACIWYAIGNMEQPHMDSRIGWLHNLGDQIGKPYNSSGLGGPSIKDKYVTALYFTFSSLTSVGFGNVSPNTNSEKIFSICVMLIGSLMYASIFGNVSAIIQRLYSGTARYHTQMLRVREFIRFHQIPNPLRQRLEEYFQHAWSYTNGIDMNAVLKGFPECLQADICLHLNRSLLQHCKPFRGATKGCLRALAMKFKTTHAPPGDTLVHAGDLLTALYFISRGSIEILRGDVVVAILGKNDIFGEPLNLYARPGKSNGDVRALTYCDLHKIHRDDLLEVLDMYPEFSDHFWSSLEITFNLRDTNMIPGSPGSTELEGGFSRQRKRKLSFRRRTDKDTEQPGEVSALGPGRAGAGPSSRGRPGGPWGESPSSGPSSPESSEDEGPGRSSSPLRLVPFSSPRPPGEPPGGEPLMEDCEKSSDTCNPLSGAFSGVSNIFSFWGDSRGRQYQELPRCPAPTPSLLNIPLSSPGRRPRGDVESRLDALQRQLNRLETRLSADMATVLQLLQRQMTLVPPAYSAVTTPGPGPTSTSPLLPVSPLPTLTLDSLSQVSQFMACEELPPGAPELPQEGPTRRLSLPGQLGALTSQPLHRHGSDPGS
smiles,measurement,setting,value
"COc1ccc2[nH]cc(CCNC(=O)CC3C(=O)N(CCc4ccc(Cl)cc4Cl)CC(=O)N3CCc3cccs3)c2c1 (stereo not drawn) [LPT99, 2-(4-(2,4-dichlorophenethyl)-3,6-dioxo-1-(2-(thiophen-2-yl)ethyl)piperazin-2-yl)-N-(2-(5-methoxy-1H-indol-3-yl)ethyl)acetamide]",safety margin (hERG IC50 vs plasma detection limit 3.2 nM),[1],> 1063
same,IC50,"[1]; hERG-CHO cells, automated patch clamp",3.4 µM
same,neurological parameters,"[2]; IP 100 mg/kg, Day 1",unaffected
same,motor activity scores,"[2]; IP 300 and 750 mg/kg, both sexes, day 1, reversible by Day 15",lower motor activity scores
same,number of metabolites formed,[3],≤ 9
same,cellular proliferation of non-apoptotic cells,[4],delayed cellular proliferation
same,genetic toxicity (Ames test),[5],no evidence of genetic toxicity
same,plasma LPT99 concentration if IT dose were 100% bioavailable,[6],0.066 µM
same,noise-induced ABR Threshold shift,[7],back at basal levels
same,Draize scores (erythema and edema),[8],0
same,Tmax,"[9]; IP 100 mg/kg/day, female, read-out: Tmax",8 h
same,Tmax,"[9]; IP 100 mg/kg/day, male, read-out: Tmax",2 h
same,Tmax,"[9]; both sexes, IP, dose levels other than 100 mg/kg/day, both genders, read-out: time to reach peak plasma concentrations (Tmax)",24 h
same,body weights or body weight gains,"[10]; IP 750 mg/kg, first 7 days, both sex",not statistically significantly lower
same,food consumption,"[10]; IP 750 mg/kg, males days 1-7, females days 1-4, vs control",statistically significant reduction
same,epididymides weight,"[10]; IP 750 mg/kg, males, Day 2",increase in epididymides weight
same,neutrophil count,"[10]; IP 750 mg/kg, males, Day 15",minimal increase in neutrophil count
same,dose proportionality of Cmax and AUClast,[10]; female,approximate dose proportional increase
same,dose proportionality of Cmax and AUClast,[10]; male,More than dose proportional increase
same,liver weight,"[10]; IP 300 and 750 mg/kg, males and females, Day 2",increase in liver weight
same,"inflammatory response, localisation","[10]; IP, Day 2 and Day 15, parenchyma not affected",restricted to the mesentery and surface of the visceral organs in abdominal cavity
same,coagulation parameters,"[10]; IP, Days 2 and 15",not affected
same,urinalysis parameters,"[10]; IP, Days 2 and 15",unaffected
same,neutrophil count,"[10]; IP, all dose groups, Day 2",increased neutrophil count
same,"mediastinal lymph node, microscopic finding","[10]; IP, all test item injected groups, Day 2",necrosis/inflammation of lymph node
same,exposure in females relative to males,"[10]; IP, all tested dose levels",1.5-5.5 fold
same,clinical chemistry parameters,"[10]; IP, males",no test item related changes
same,general tolerability,"[10]; single IP 100, 300, 750 mg/kg",generally safe and well tolerated
same,mortality,"[10]; single IP 100, 300, 750 mg/kg",No mortality was observed
same,clinical signs,"[10]; single IP, all tested dose groups",no clinical signs observed
same,MTD,[11],1000 mg/kg
same,detection of LPT99 in administered cochleae,"[12]; single IT 50, 100, or 200 μM in 5% hydroxypropyl cyclodextrin, 0.5 and 1 hour",detected in all administered cochleae
same,LPT99 concentrations in contralateral cochleae and plasma,"[12]; single IT, all time points",BLLQ

# Source: patent US10561736B1, “Apoptosis inhibitor formulations for prevention of hearing loss” (Spiral Therapeutics, Inc., priority 2019, dated 2020)
